Assay results taken from ChEMBL document CHEMBL3045245, “Synthesis and antitumor activities of certain novel 2-amino-9-(4-halostyryl)-4H-pyrano[3,2-h]quinoline derivatives” (Med Chem Res, 2012).
Values after ≈ are worked out from the molar mass of the structure shown.

tested on: not listed separately; experiment: Cytotoxicity against Homo sapiens (human) HCT cells assessed as cell viability at 6.25 ug/ml after 48 hr by MTT assay; type: functional; settings: read-out: Activity

SMILES	viability at 6.25 µg/mL [%]
N#CC1=C(N)Oc2c(ccc3ccc(/C=C/c4ccc(F)cc4)nc23)C1c1ccc(Cl)cc1 (stereo not drawn)	95.2
N#CC1=C(N)Oc2c(ccc3ccc(/C=C/c4ccc(F)cc4)nc23)C1c1ccc(Br)cc1 (stereo not drawn)	94.8
CCOC(=O)C1=C(N)Oc2c(ccc3ccc(/C=C/c4ccc(Cl)cc4)nc23)C1c1ccc(Cl)cc1 (stereo not drawn)	64.1

tested on: not listed separately; experiment: Cytotoxicity against Homo sapiens (human) HCT cells assessed as cell viability at 25 ug/ml after 48 hr by MTT assay; type: functional; settings: read-out: Activity

SMILES	viability at 25 µg/mL [%]
N#CC1=C(N)Oc2c(ccc3ccc(/C=C/c4ccc(F)cc4)nc23)C1c1ccc(Cl)cc1 (stereo not drawn)	62.5
N#CC1=C(N)Oc2c(ccc3ccc(/C=C/c4ccc(F)cc4)nc23)C1c1ccc(Br)cc1 (stereo not drawn)	83.4
CCOC(=O)C1=C(N)Oc2c(ccc3ccc(/C=C/c4ccc(Cl)cc4)nc23)C1c1ccc(Cl)cc1 (stereo not drawn)	20.4

tested on: not listed separately; experiment: Cytotoxicity against Homo sapiens (human) HCT cells assessed as cell viability at 50 ug/ml after 48 hr by MTT assay; type: functional; settings: read-out: Activity

SMILES	viability at 50 µg/mL [%]
N#CC1=C(N)Oc2c(ccc3ccc(/C=C/c4ccc(F)cc4)nc23)C1c1ccc(Cl)cc1 (stereo not drawn)	41.3
N#CC1=C(N)Oc2c(ccc3ccc(/C=C/c4ccc(F)cc4)nc23)C1c1ccc(Br)cc1 (stereo not drawn)	57.6
CCOC(=O)C1=C(N)Oc2c(ccc3ccc(/C=C/c4ccc(Cl)cc4)nc23)C1c1ccc(Cl)cc1 (stereo not drawn)	14.1

tested on: HepG2; experiment: Cytotoxicity against Homo sapiens (human) HepG2 cells assessed as cell viability at 12.5 ug/ml after 48 hr by MTT assay; type: functional; settings: HepG2, 48 h, read-out: Activity

SMILES	viability at 12.5 µg/mL [%]
N#CC1=C(N)Oc2c(ccc3ccc(/C=C/c4ccc(F)cc4)nc23)C1c1ccc(Cl)cc1 (stereo not drawn)	84.6
N#CC1=C(N)Oc2c(ccc3ccc(/C=C/c4ccc(F)cc4)nc23)C1c1ccc(Br)cc1 (stereo not drawn)	83.4
CCOC(=O)C1=C(N)Oc2c(ccc3ccc(/C=C/c4ccc(Cl)cc4)nc23)C1c1ccc(Cl)cc1 (stereo not drawn)	45.6

tested on: HepG2; experiment: Cytotoxicity against Homo sapiens (human) HepG2 cells assessed as cell viability at 50 ug/ml after 48 hr by MTT assay; type: functional; settings: HepG2, 48 h, read-out: Activity

SMILES	viability at 50 µg/mL [%]
N#CC1=C(N)Oc2c(ccc3ccc(/C=C/c4ccc(F)cc4)nc23)C1c1ccc(Cl)cc1 (stereo not drawn)	56.4
N#CC1=C(N)Oc2c(ccc3ccc(/C=C/c4ccc(F)cc4)nc23)C1c1ccc(Br)cc1 (stereo not drawn)	63.4
CCOC(=O)C1=C(N)Oc2c(ccc3ccc(/C=C/c4ccc(Cl)cc4)nc23)C1c1ccc(Cl)cc1 (stereo not drawn)	28.1

tested on: MCF7; experiment: Cytotoxicity against Homo sapiens (human) MCF7 cells assessed as cell viability at 50 ug/ml after 48 hr by MTT assay; type: functional; settings: MCF7, 48 h, read-out: Activity

SMILES	viability at 50 µg/mL [%]
N#CC1=C(N)Oc2c(ccc3ccc(/C=C/c4ccc(F)cc4)nc23)C1c1ccc(Cl)cc1 (stereo not drawn)	28.5
N#CC1=C(N)Oc2c(ccc3ccc(/C=C/c4ccc(F)cc4)nc23)C1c1ccc(Br)cc1 (stereo not drawn)	39.5
CCOC(=O)C1=C(N)Oc2c(ccc3ccc(/C=C/c4ccc(Cl)cc4)nc23)C1c1ccc(Cl)cc1 (stereo not drawn)	27.2

tested on: HepG2; experiment: Cytotoxicity against Homo sapiens (human) HepG2 cells assessed as cell viability at 25 ug/ml after 48 hr by MTT assay; type: functional; settings: HepG2, 48 h, read-out: Activity

SMILES	viability at 25 µg/mL [%]
N#CC1=C(N)Oc2c(ccc3ccc(/C=C/c4ccc(F)cc4)nc23)C1c1ccc(Cl)cc1 (stereo not drawn)	78.3
N#CC1=C(N)Oc2c(ccc3ccc(/C=C/c4ccc(F)cc4)nc23)C1c1ccc(Br)cc1 (stereo not drawn)	74.8
CCOC(=O)C1=C(N)Oc2c(ccc3ccc(/C=C/c4ccc(Cl)cc4)nc23)C1c1ccc(Cl)cc1 (stereo not drawn)	37.9

tested on: not listed separately; experiment: Cytotoxicity against Homo sapiens (human) HCT cells after 48 hr by MTT assay; type: functional, cell-based; settings: not given

SMILES	IC50 [µg/mL]
N#CC1=C(N)Oc2c(ccc3ccc(/C=C/c4ccc(F)cc4)nc23)C1c1ccc(Cl)cc1 (stereo not drawn)	43.8 (≈ 96.5 µM)
N#CC1=C(N)Oc2c(ccc3ccc(/C=C/c4ccc(F)cc4)nc23)C1c1ccc(Br)cc1 (stereo not drawn)	> 50
CCOC(=O)C1=C(N)Oc2c(ccc3ccc(/C=C/c4ccc(Cl)cc4)nc23)C1c1ccc(Cl)cc1 (stereo not drawn)	13 (≈ 25.1 µM)

tested on: MCF7; experiment: Cytotoxicity against Homo sapiens (human) MCF7 cells assessed as cell viability at 6.25 ug/ml after 48 hr by MTT assay; type: functional; settings: MCF7, 48 h, read-out: Activity

SMILES	viability at 6.25 µg/mL [%]
N#CC1=C(N)Oc2c(ccc3ccc(/C=C/c4ccc(F)cc4)nc23)C1c1ccc(Cl)cc1 (stereo not drawn)	91.8
N#CC1=C(N)Oc2c(ccc3ccc(/C=C/c4ccc(F)cc4)nc23)C1c1ccc(Br)cc1 (stereo not drawn)	91.8
CCOC(=O)C1=C(N)Oc2c(ccc3ccc(/C=C/c4ccc(Cl)cc4)nc23)C1c1ccc(Cl)cc1 (stereo not drawn)	47.2

tested on: MCF7; experiment: Cytotoxicity against Homo sapiens (human) MCF7 cells assessed as cell viability at 12.5 ug/ml after 48 hr by MTT assay; type: functional; settings: MCF7, 48 h, read-out: Activity

SMILES	viability at 12.5 µg/mL [%]
N#CC1=C(N)Oc2c(ccc3ccc(/C=C/c4ccc(F)cc4)nc23)C1c1ccc(Cl)cc1 (stereo not drawn)	86.7
N#CC1=C(N)Oc2c(ccc3ccc(/C=C/c4ccc(F)cc4)nc23)C1c1ccc(Br)cc1 (stereo not drawn)	80.2
CCOC(=O)C1=C(N)Oc2c(ccc3ccc(/C=C/c4ccc(Cl)cc4)nc23)C1c1ccc(Cl)cc1 (stereo not drawn)	41.6

tested on: not listed separately; experiment: Cytotoxicity against Homo sapiens (human) HCT cells assessed as cell viability at 1.56 ug/ml after 48 hr by MTT assay; type: functional; settings: read-out: Activity

SMILES	viability at 1.56 µg/mL [%]
N#CC1=C(N)Oc2c(ccc3ccc(/C=C/c4ccc(F)cc4)nc23)C1c1ccc(Cl)cc1 (stereo not drawn)	100
N#CC1=C(N)Oc2c(ccc3ccc(/C=C/c4ccc(F)cc4)nc23)C1c1ccc(Br)cc1 (stereo not drawn)	100
CCOC(=O)C1=C(N)Oc2c(ccc3ccc(/C=C/c4ccc(Cl)cc4)nc23)C1c1ccc(Cl)cc1 (stereo not drawn)	78.6

tested on: not listed separately; experiment: Cytotoxicity against Homo sapiens (human) HCT cells assessed as cell viability at 3.125 ug/ml after 48 hr by MTT assay; type: functional; settings: read-out: Activity

SMILES	viability at 3.125 µg/mL [%]
N#CC1=C(N)Oc2c(ccc3ccc(/C=C/c4ccc(F)cc4)nc23)C1c1ccc(Cl)cc1 (stereo not drawn)	98.8
N#CC1=C(N)Oc2c(ccc3ccc(/C=C/c4ccc(F)cc4)nc23)C1c1ccc(Br)cc1 (stereo not drawn)	98.6
CCOC(=O)C1=C(N)Oc2c(ccc3ccc(/C=C/c4ccc(Cl)cc4)nc23)C1c1ccc(Cl)cc1 (stereo not drawn)	69.3

tested on: MCF7; experiment: Cytotoxicity against Homo sapiens (human) MCF7 cells assessed as cell viability at 1.56 ug/ml after 48 hr by MTT assay; type: functional; settings: MCF7, 48 h, read-out: Activity

SMILES	viability at 1.56 µg/mL [%]
N#CC1=C(N)Oc2c(ccc3ccc(/C=C/c4ccc(F)cc4)nc23)C1c1ccc(Cl)cc1 (stereo not drawn)	99.3
N#CC1=C(N)Oc2c(ccc3ccc(/C=C/c4ccc(F)cc4)nc23)C1c1ccc(Br)cc1 (stereo not drawn)	100
CCOC(=O)C1=C(N)Oc2c(ccc3ccc(/C=C/c4ccc(Cl)cc4)nc23)C1c1ccc(Cl)cc1 (stereo not drawn)	78.1

tested on: MCF7; experiment: Cytotoxicity against Homo sapiens (human) MCF7 cells assessed as cell viability at 25 ug/ml after 48 hr by MTT assay; type: functional; settings: MCF7, 48 h, read-out: Activity

SMILES	viability at 25 µg/mL [%]
N#CC1=C(N)Oc2c(ccc3ccc(/C=C/c4ccc(F)cc4)nc23)C1c1ccc(Cl)cc1 (stereo not drawn)	79.4
N#CC1=C(N)Oc2c(ccc3ccc(/C=C/c4ccc(F)cc4)nc23)C1c1ccc(Br)cc1 (stereo not drawn)	67.8
CCOC(=O)C1=C(N)Oc2c(ccc3ccc(/C=C/c4ccc(Cl)cc4)nc23)C1c1ccc(Cl)cc1 (stereo not drawn)	34.6

tested on: not listed separately; experiment: Cytotoxicity against Homo sapiens (human) HCT cells assessed as cell viability at 12.5 ug/ml after 48 hr by MTT assay; type: functional; settings: read-out: Activity

SMILES	viability at 12.5 µg/mL [%]
N#CC1=C(N)Oc2c(ccc3ccc(/C=C/c4ccc(F)cc4)nc23)C1c1ccc(Cl)cc1 (stereo not drawn)	86.9
N#CC1=C(N)Oc2c(ccc3ccc(/C=C/c4ccc(F)cc4)nc23)C1c1ccc(Br)cc1 (stereo not drawn)	91.1
CCOC(=O)C1=C(N)Oc2c(ccc3ccc(/C=C/c4ccc(Cl)cc4)nc23)C1c1ccc(Cl)cc1 (stereo not drawn)	54.3

tested on: HepG2; experiment: Cytotoxicity against Homo sapiens (human) HepG2 cells assessed as cell viability at 3.125 ug/ml after 48 hr by MTT assay; type: functional; settings: HepG2, 48 h, read-out: Activity

SMILES	viability at 3.125 µg/mL [%]
N#CC1=C(N)Oc2c(ccc3ccc(/C=C/c4ccc(F)cc4)nc23)C1c1ccc(Cl)cc1 (stereo not drawn)	98.9
N#CC1=C(N)Oc2c(ccc3ccc(/C=C/c4ccc(F)cc4)nc23)C1c1ccc(Br)cc1 (stereo not drawn)	98.9
CCOC(=O)C1=C(N)Oc2c(ccc3ccc(/C=C/c4ccc(Cl)cc4)nc23)C1c1ccc(Cl)cc1 (stereo not drawn)	65.3

tested on: MCF7; experiment: Cytotoxicity against Homo sapiens (human) MCF7 cells assessed as cell viability at 3.125 ug/ml after 48 hr by MTT assay; type: functional; settings: MCF7, 48 h, read-out: Activity

SMILES	viability at 3.125 µg/mL [%]
N#CC1=C(N)Oc2c(ccc3ccc(/C=C/c4ccc(F)cc4)nc23)C1c1ccc(Cl)cc1 (stereo not drawn)	97.9
N#CC1=C(N)Oc2c(ccc3ccc(/C=C/c4ccc(F)cc4)nc23)C1c1ccc(Br)cc1 (stereo not drawn)	96.9
CCOC(=O)C1=C(N)Oc2c(ccc3ccc(/C=C/c4ccc(Cl)cc4)nc23)C1c1ccc(Cl)cc1 (stereo not drawn)	67.8

tested on: HepG2; experiment: Cytotoxicity against Homo sapiens (human) HepG2 cells assessed as cell viability at 1.56 ug/ml after 48 hr by MTT assay; type: functional; settings: HepG2, 48 h, read-out: Activity

SMILES	viability at 1.56 µg/mL [%]
N#CC1=C(N)Oc2c(ccc3ccc(/C=C/c4ccc(F)cc4)nc23)C1c1ccc(Cl)cc1 (stereo not drawn)	100
N#CC1=C(N)Oc2c(ccc3ccc(/C=C/c4ccc(F)cc4)nc23)C1c1ccc(Br)cc1 (stereo not drawn)	100
CCOC(=O)C1=C(N)Oc2c(ccc3ccc(/C=C/c4ccc(Cl)cc4)nc23)C1c1ccc(Cl)cc1 (stereo not drawn)	81.9

tested on: HepG2; experiment: Cytotoxicity against Homo sapiens (human) HepG2 cells assessed as cell viability at 6.25 ug/ml after 48 hr by MTT assay; type: functional; settings: HepG2, 48 h, read-out: Activity

SMILES	viability at 6.25 µg/mL [%]
N#CC1=C(N)Oc2c(ccc3ccc(/C=C/c4ccc(F)cc4)nc23)C1c1ccc(Cl)cc1 (stereo not drawn)	96.2
N#CC1=C(N)Oc2c(ccc3ccc(/C=C/c4ccc(F)cc4)nc23)C1c1ccc(Br)cc1 (stereo not drawn)	97.2
CCOC(=O)C1=C(N)Oc2c(ccc3ccc(/C=C/c4ccc(Cl)cc4)nc23)C1c1ccc(Cl)cc1 (stereo not drawn)	53

tested on: MCF7; experiment: Cytotoxicity against Homo sapiens (human) MCF7 cells after 48 hr by MTT assay; type: functional, cell-based; settings: MCF7, 48 h

SMILES	IC50 [µg/mL]
N#CC1=C(N)Oc2c(ccc3ccc(/C=C/c4ccc(F)cc4)nc23)C1c1ccc(Cl)cc1 (stereo not drawn)	38.6 (≈ 85 µM)
N#CC1=C(N)Oc2c(ccc3ccc(/C=C/c4ccc(F)cc4)nc23)C1c1ccc(Br)cc1 (stereo not drawn)	42.5 (≈ 85.3 µM)
CCOC(=O)C1=C(N)Oc2c(ccc3ccc(/C=C/c4ccc(Cl)cc4)nc23)C1c1ccc(Cl)cc1 (stereo not drawn)	5.5 (≈ 10.6 µM)

tested on: HepG2; experiment: Cytotoxicity against Homo sapiens (human) HepG2 cells after 48 hr by MTT assay; type: functional, cell-based; settings: HepG2, 48 h

SMILES	IC50 [µg/mL]
N#CC1=C(N)Oc2c(ccc3ccc(/C=C/c4ccc(F)cc4)nc23)C1c1ccc(Cl)cc1 (stereo not drawn)	> 50
N#CC1=C(N)Oc2c(ccc3ccc(/C=C/c4ccc(F)cc4)nc23)C1c1ccc(Br)cc1 (stereo not drawn)	> 50
CCOC(=O)C1=C(N)Oc2c(ccc3ccc(/C=C/c4ccc(Cl)cc4)nc23)C1c1ccc(Cl)cc1 (stereo not drawn)	7.9 (≈ 15.3 µM)
